From patent US20050129680A1, “Antimicrobial activity of antibodies” (priority 2001, published 2005)
“And” between values parts separate entries of the source, which are not always exact repeats. Equal values may be shown once.

Legend:
horse poly-IgG = settings: read-out: IC50 of H2O2 on the photo-production of H2O2 by horse poly-IgG; horse IgG 6.7 μM, H2O2 0-450 μM, near-UV
Procedure: Such a graph permits determination of the IC50 of H2O2 on the photo-production of H2O2 by horse poly-IgG. A solution of horse IgG (6.7 μM) was incubated with varying concentrations of H2O2 (0-450 μM) and the initial rate of H2O2 formation measured as described in FIG. 8A.

[1] = Decomposition of O3 under aqueous conditions; type: physicochemical; settings: PBS pH 7.4, 22° C.
Procedure: The rate of decomposition of O3 under the aqueous conditions employed was measured by the following method. Ozone, produced by a passage of O2 through a Polymetrics ozonizer, was bubbled for 2 min through a phosphate buffered saline (PBS, pH 7.4) solution in a quartz cuvette (1 cm^2) at room temperature. The time-dependent change in optical density was then measured at 260 nm (ε=2,700 M^−[…]) for at least 5 half lives in a Hitachi u.v./vis spectrophotometer equipped with a thermostatted rack at 22° C. See Takeuchi et al., Anal. Chim. Acta. 230, 183 (1990). […] The sensitivity of the assay was limited by spectrophotometer accuracy to ±0.1% (˜1 μM) of the OD at t=0.

E. coli = test: Bactericidal assay (CFU recovery), strain not singled out; type: cell-based; settings: 40 μM, white light 2.7 mW cm^−2, 1 h, PBS, 4±1° C.
Procedure: (§1) In a typical experiment, a culture of E. coli (in log phase growth, OD600=0.2-0.3) was repeatedly pelleted (3×3,500 rpm) and resuspended in PBS (pH 7.4). The PBS suspended cells were then added to glass vials and cooled to 4° C. […] Viability was determined by recovery of colony forming units (CFUs) on agar plates. Each experiment was performed at least in duplicate.
as §1, with “washed in PBS by pelleting” for “pelleted”, “rpm) the cells” for “rpm)”, “resuspending them” for “resuspended”

[2] = Antibody/protein UV irradiation with Amplex Red quantitative assay for hydrogen peroxide; type: biochemical; settings: for reduction of ^1O2 (panel of other proteins): UV irradiation, PBS
Procedure: Aliquots (10 μL) were removed at timed intervals throughout the assay. H2O2 concentration was determined by the amplex red method. Each data point is reported as the mean±SEM of at least duplicate measurements: ? polyclonal (poly) immunoglobulin (Ig) G, human; O poly-IgG, horse; ? poly-IgG, sheep; ∇ monoclonal (m) IgG (WD1-6G6), murine; ? poly-IgM, human; ? mIgG (92H2), murine; ¦ β-galactosidase (β-gal); ? chick ovalbumin (OVA); ? a-lactalbumin (a-lact); ? bovine serum albumin (BSA).
Antibody/Protein Irradiation.
Quantitative Assay for Hydrogen Peroxide. An aliquot (20 μl) from the protein solution was removed and added into a well of a 96-well microtiter plate (Costar) containing reaction buffer (80 μl). Working solution (100 μl/400 μM Amplex Red reagent 1/2 units/ml horseradish peroxidase) was then added, and the plate was incubated in the dark for 30 min. The fluorescence of the well components was then measured using a CytoFluor Multiwell Plate Reader (Series 4000, PerSeptive Biosystems, Framingham, Mass.; Ex/Em: 530/580 nm). The hydrogen peroxide concentration was determined using a standard curve. All experiments were run in duplicate, and the rate is quoted as the mean of at least two measurements.
A suspension of crystals of the Fab fragment of 1D4 (2 μl) was diluted with PBS (198 μl, pH 7.4) and vortexed gently. Following centrifugation, the supernatant was removed, and the washing procedure was repeated twice further. The residual crystal suspension was then diluted into PBS, pH 7.4 (100 μl), and added into a well of a quartz ELISA plate. Following UV irradiation for 30 min, Amplex Red working solution (100 μl) was added, and the mixture was viewed on a fluorescence microscope.
Denaturation. […] The resultant solution was transferred to a glass, screw-cap vial and irradiated with UV light for 30 min. The concentration of H2O2 was determined after 30 min.

E. coli XL1-blue = test: Bactericidal assay (CFU recovery); type: cell-based; settings: catalase 13 mU/mL
Procedure: (§2) In a typical experiment, a culture of E. coli (in log phase growth, OD600=0.2-0.3) was repeatedly pelleted (3×3,500 rpm) and resuspended in PBS (pH 7.4). The PBS suspended cells were then added to glass vials and cooled to 4° C. Hematoporphyrin IX (40 μM) and antibody (20 μM) were added and the vials were either placed on a light box (visible light, 2.8 mW cm^−2) or in the dark at 4° C. and incubated for 1 h. Viability was determined by recovery of colony forming units (CFUs) on agar plates. Each experiment was performed at least in duplicate.
as §2, with “washed in PBS by pelleting” for “pelleted”, “rpm) the cells” for “rpm)”, “resuspending them” for “resuspended”

**Q.** With `OO` [Clone H2O2, hydrogen peroxide] as the molecule, how does the IC50 (horse poly-IgG) read?
**A.** Its IC50 is ~225 µM and 225 µM.

**Q.** For `O=[O+][O-]` [Clone O3, ozone], which “half-life (t1/2) under aqueous conditions” value [1] is on record?
**A.** Its value is 1.1 min.

**Q.** For `CC1=C(CCC(=O)O)c2cc3[nH]c(cc4nc(cc5[nH]c(cc1n2)c(C)c5C(C)O)C(C)=C4C(C)O)c(C)c3CCC(=O)O` (centres unmarked) [hematoporphyrin IX], which “bactericidal activity of sensitizer alone” value (E. coli) is on record?
**A.** The value was “negligible bactericidal activity”.

**Q.** Which “H2O2 produced during near-UV photo-oxidation” value ([2]; near-UV irradiation, 20 μM) does the source give for `N[C@@H](Cc1c[nH]c2ccccc12)C(=O)O` [tryptophan] here?
**A.** Its value is “ca. 0.5 mole equivalents”.

**Q.** Which “protection against the bactericidal activity of non-specific antibodies” value (E. coli XL1-blue) does the source give for catalase here?
**A.** Its value is “complete protection”.

**Q.** With β-galactosidase as the molecule, how does the “H2O2 generated during near-UV irradiation” value ([2]; near-UV irradiation, 6.7 μM) read?
**A.** The value was 5.9 mol eq.

B1: chick ovalbumin: chick-egg ovalbumin (protein, UniProt P01012 2-386, looked up)
Ovalbumin: GSIGAASMEFCFDVFKELKVHHANENIFYCPIAIMSALAMVYLGAKDSTRTQINKVVRFDKLPGFGDSIEAQCGTSVNVHSSLRDILNQITKPNDVYSFSLASRLYAEERYPILPEYLQCVKELYRGGLEPINFQTAADQARELINSWVESQTNGIIRNVLQPSSVDSQTAMVLVNAIVFKGLWEKAFKDEDTQAMPFRVTEQESKPVQMMYQIGLFRVASMASEKMKILELPFASGTMSMLVLLPDEVSGLEQLESIINFEKLTEWTSSNVMEERKIKVYLPRMKMEEKYNLTSVLMAMGITDVFSSSANLSGISSAESLKISQAVHAAHAEINEAGREVVGSAEAGVDAASVSEEFRADHPFLFCIKHIATNAVLFFGRCVSP
**Q.** For B1, which “reduction of ^1O2 (panel of other proteins)” value [2] is on record?
**A.** The value was “one of the most efficient proteins”.

B2: RNase A: ribonuclease, no Trp residues, several disulfide bonds (protein, UniProt P61823 27-150, looked up)
Ribonuclease pancreatic: KETAAAKFERQHMDSSTSAASSSNYCNQMMKSRNLTKDRCKPVNTFVHESLADVQAVCSQKNVACKNGQTNCYQSYSTMSITDCRETGSSKYPNCAYKTTQANKHIIVACEGNPYVPVHFDASV
**Q.** With B2 as the molecule, how does the “reduction of ^1O2 (panel of other proteins)” value [2] read?
**A.** Its value is “do not reduce”.
